Literature values as cited in patent publication US20130004563A1, “MULTIP[…]-ADENOSYLMETHIONINE COMPOSITIONS AND RELATED METHODS” (priority 2011, published 2013).

How the values were obtained:
[1] = not given; remark: listed apart in the source

S-adenosyl-L-methionine [SAMe]
stability in vitro: relatively unstable | SAMe bioavailability ([1]; enteric-coated single unit tablets, compared with immediate release formulations): higher | half-life ([1]; in the body, single dose): approximately 6 hours
